According to patent US7276527B2, “5-pyridyl-1,3-azole compounds, process for producing the same and use thereof” (Takeda Pharmaceutical Company Limited, priority 1999, dated 2007):

melting point	SMILES
217 to 219 °C	CC(=O)Nc1nc(-c2cc(C)cc(C)c2)c(-c2ccnc(NCc3ccccc3)c2)s1 [Example Compound 10, N-[5-(2-benzylamino-4-pyridyl)-4-(3,5-dimethylphenyl)-1,3-thiazol-2-yl]acetamide]
237 to 241 °C	CNc1nc(-c2ccc(OC)cc2)c(-c2ccnc(NC(=O)c3ccccc3)c2)s1 [Example Compound 11, N-[4-[4-(4-methoxyphenyl)-2-methylamino-1,3-thiazol-5-yl]-2-pyridyl]benzamide]
216 to 217 °C	Cc1cccc(-c2nc(N)sc2-c2ccnc(NC(=O)c3ccccc3)c2)c1 [Example Compound 12, N-[4-[2-amino-4-(3-methylphenyl)-1,3-thiazol-5-yl]-2-pyridyl]benzamide]
118 to 120 °C	COc1ccc(-c2nc(C)sc2-c2ccnc(NC(=O)Cc3ccccc3)c2)cc1 [Example Compound 15-1, N-[4-[4-(4-methoxyphenyl)-2-methyl-1,3-thiazol-5-yl]-2-pyridyl]phenylacetamide]
92 to 93 °C	CCCCc1nc(-c2cccc(C)c2)c(-c2ccnc(NC(=O)Cc3ccccc3)c2)s1 [Example Compound 15-4, N-[4-[2-butyl-4-(3-methylphenyl)-1,3-thiazol-5-yl]-2-pyridyl]phenylacetamide]
141 to 142 °C	Cc1cccc(-c2nc(-c3ccccc3Cl)sc2-c2ccnc(NC(=O)Cc3ccccc3)c2)c1 [Example Compound 15-5, N-(4-[2-(2-chlorophenyl)-4-(3-methylphenyl)-1,3-thiazol-5-yl]-2-pyridyl]phenylacetamide]
205 to 206 °C	CSc1ccc(-c2nc(-c3cccc(C)c3)c(-c3ccnc(NC(=O)Cc4ccccc4)c3)s2)cc1 [Example Compound 15-6, N-[4-[4-(3-methylphenyl)-2-(4-methylthiophenyl)-1,3-thiazol-5-yl]-2-pyridyl]phenylacetamide]
137 to 138 °C	CCc1nc(-c2cccc(C)c2)c(-c2ccnc(NC(=O)CCc3ccc(OC)cc3)c2)s1 [Example Compound 16-3, N-[4-[2-ethyl-4-(3-methylphenyl)-1,3-thiazol-5-yl]-2-pyridyl]-3-(4-methoxyphenyl)propionamide]
116 to 117 °C	CCc1nc(-c2cccc(C)c2)c(-c2ccnc(NC(=O)CCc3ccc(F)cc3)c2)s1 [Example Compound 16-4, N-[4-[2-ethyl-4-(3-methylphenyl)-1,3-thiazol-5-yl]-2-pyridyl]-3-(4-fluorophenyl)propionamide]
92 to 93 °C	CCc1nc(-c2cccc(C)c2)c(-c2ccnc(NC(=O)CCCc3ccccc3)c2)s1 [Example Compound 16-5, N-[4-[2-ethyl-4-(3-methylphenyl)-1,3-thiazol-5-yl]-2-pyridyl]-4-phenylbutyramide]
86 to 87 °C	CCc1nc(-c2cccc(C)c2)c(-c2ccnc(NC(=O)CCCCc3ccccc3)c2)s1 [Example Compound 16-6, N-[4-[2-ethyl-4-(3-methylphenyl)-1,3-thiazol-5-yl]-2-pyridyl]-5-phenylvaleramide]
103 to 104 °C	CCCc1nc(-c2cccc(C)c2)c(-c2ccnc(NC(=O)CCc3ccccc3)c2)s1 [Example Compound 16-8, N-[4-[4-(3-methylphenyl)-2-propyl-1,3-thiazol-5-yl]-2-pyridyl]-3-phenylpropionamide]
77 to 78 °C	CCCCc1nc(-c2cccc(C)c2)c(-c2ccnc(NC(=O)CCc3ccccc3)c2)s1 [Example Compound 16-10, N-[4-[2-butyl-4-(3-methylphenyl)-1,3-thiazol-5-yl]-2-pyridyl]-3-phenylpropionamide]
126 to 128 °C	Cc1cccc(-c2nc(-c3ccc(F)cc3)sc2-c2ccnc(NC(=O)c3ccccc3)c2)c1 [Example Compound 16-11, N-[4-[2-(4-fluorophenyl)-4-(3-methylphenyl)-1,3-thiazol-5-yl]-2-pyridyl]benzamide]
169 to 171 °C	Cc1cccc(-c2nc(-c3ccc(F)cc3)sc2-c2ccnc(NC(=O)CCc3ccccc3)c2)c1 [Example Compound 16-12, N-[4-[2-(4-fluorophenyl)-4-(3-methylphenyl)-1,3-thiazol-5-yl]-2-pyridyl]-3-phenylpropionamide]
138 to 140 °C	Cc1cccc(-c2nc(-c3ccccc3Cl)sc2-c2ccnc(NC(=O)c3ccccc3)c2)c1 [Example Compound 16-13, N-(4-[2-(2-chlorophenyl)-4-(3-methylphenyl)-1,3-thiazol-5-yl]-2-pyridyl]benzamide]
156 to 158 °C	Cc1cccc(-c2nc(-c3ccccc3Cl)sc2-c2ccnc(NC(=O)CCc3ccccc3)c2)c1 [Example Compound 16-14, N-[4-[2-(2-chlorophenyl)-4-(3-methylphenyl)-1,3-thiazol-5-yl]-2-pyridyl]-3-phenylpropionamide]
180 to 182 °C	CSc1ccc(-c2nc(-c3cccc(C)c3)c(-c3ccnc(NC(=O)c4ccccc4)c3)s2)cc1 [Example Compound 16-15, N-[4-[4-(3-methylphenyl)-2-(4-methylthiophenyl)-1,3-thiazol-5-yl]-2-pyridyl]benzamide]
174 to 175 °C	CSc1ccc(-c2nc(-c3cccc(C)c3)c(-c3ccnc(NC(=O)CCc4ccccc4)c3)s2)cc1 [Example Compound 16-16, N-[4-[4-(3-methylphenyl)-2-(4-methylthiophenyl)-1,3-thiazol-5-yl]-2-pyridyl]-3-phenylpropionamide]
145 to 147 °C	CSc1ccc(-c2nc(-c3cccc(C)c3)c(-c3ccnc(NC(=O)c4cccs4)c3)s2)cc1 [Example Compound 16-17, N-[4-[4-(3-methylphenyl)-2-(4-methylthiophenyl)-1,3-thiazol-5-yl]-2-pyridyl]-2-thiophenecarboxamide]
184 to 186 °C	CSc1ccc(-c2nc(-c3cccc(C)c3)c(-c3ccnc(NC(=O)c4ccc5ccccc5c4)c3)s2)cc1 [Example Compound 16-18, N-[4-[4-(3-methylphenyl)-2-(4-methylthiophenyl)-1,3-thiazol-5-yl]-2-pyridyl]-2-naphthamide]
132 to 133 °C	COc1ccc(-c2nc(C)sc2-c2ccnc(NCc3ccccc3)c2)cc1 [Example Compound 19-1, N-benzyl-N-[4-[4-(4-methoxyphenyl)-2-methyl-1,3-thiazol-5-yl]-2-pyridyl]amine]
143 to 146 °C	Cc1cccc(-c2nc(-c3ccc(F)cc3)sc2-c2ccnc(NCc3ccccc3)c2)c1 [Example Compound 19-11, N-benzyl-N-[4-[2-(4-fluorophenyl)-4-(3-methylphenyl)-1,3-thiazol-5-yl]-2-pyridyl]amine]
97 to 98 °C	Cc1cccc(-c2nc(-c3ccc(F)cc3)sc2-c2ccnc(NCCc3ccccc3)c2)c1 [Example Compound 19-12, N-[4-[2-(4-fluorophenyl)-4-(3-methylphenyl)-1,3-thiazol-5-yl]-2-pyridyl]-N-(2-phenylethyl)amine]
110 to 112 °C	Cc1cccc(-c2nc(-c3ccc(F)cc3)sc2-c2ccnc(NCCCc3ccccc3)c2)c1 [Example Compound 19-13, N-[4-[2-(4-fluorophenyl)-4-(3-methylphenyl)-1,3-thiazol-5-yl]-2-pyridyl]-N-(3-phenylpropyl)amine]
